Measured values taken from patent US9492470B2, “Use of HMGA-targeted phosphorothioate DNA aptamers to suppress carcinogenic activity and increase sensitivity to chemotherapy agents in human cancer cells” (MIAMI UNIVERSITY, priority 2012, dated 2016).
Like-named read-outs stand apart in the source and are kept apart here. In the oligonucleotide strings, read from the 5' end, every base follows the letter of its sugar. An asterisk marks phosphorothioate; unmarked linkages are phosphodiester. Other units and linkages are bracketed, terminal groups are in braces. A string of capitals states the bases alone. d = 2'-deoxy (DNA)

Columns and labels:
Miapaca-2 cells [1] = experiment: Cell growth with gemcitabine treatment after sDNA transfection, Miapaca-2; format: cell-based, Human; settings: 96 hours; for Fold change in numbers of viable cells normalized relative to TC: Miapaca-2, 0.1 ug sDNA
Method: (§1) Cells were fixed after 96 hours and numbers of viable cells counted by measuring the absorbance at 570 nm.
(§2) Cells were transfected with 0.1 μg of TC-sDNA, Mix-sDNA, CG-sDNA, and AT-sDNA.

AsPC-1 cells [2] = settings: for cell death: 96 h, compared to non-transfected cells; for cells dead compared to UT: AsPC-1, 0.1 ug sDNA, versus untransfected (UT) cells; for Fold change in numbers of viable cells between TC and sDNA transfected cells (in parentheses) / Fold change in numbers of viable cells between UT and transfected cells: 96 h after transfection
Method: AsPC-1 cells were grown in Roswell Park Memorial Institute medium supplemented with 10% FBS, and 1% penicillin-streptomycin.
Transfections using sDNA at concentrations of 0.1 and 0.25 μg per well were conducted with 5×10^4 and 1×10^5 Miapaca-2 and AsPC-1 cells, respectively, in 24-well plates and all data were collected in quadruplicate. Miapaca-2 and AsPC-1 cells were transfected with sDNA using Lipofectamine 2000 (Invitrogen,™ Life Technologies Corporation, Carlsbad, Calif.) according to the manufacturer's protocol.
Briefly, AsPC-1 cells grown in 10% FBS containing RPIM medium were trypsinized using a trypsin-EDTA solution commercially available from the Sigma-Aldrich, and used to seed fresh media in a 24-well plate with 10^5 cells per well.
After 48 hours, the cells were transfected with the selected sDNA using Lipofectamine 2000 (Invitrogen,™ Life Technologies Corporation, Carlsbad, Calif.) according to the manufacturer's protocol. […] The cells were then fixed with 4% paraformaldehyde in PBS for 20 minutes and stained in 0.1% crystal violet stain (Sigma-Aldrich) for 30 minutes. The cells were washed under running tap water, air dried, and extracted with 0.2% Triton™ X-100 for 30 minutes. […] The absorbance of the Triton X-100 was measured at 570 nm using a HTS microplate reader. All results were analyzed for statistical significance using a student's unpaired t-test.

Miapaca-2 cells [3] = experiment: Cell growth with gemcitabine treatment after sDNA transfection, Miapaca-2; format: cell-based, Human; settings: for Fold change in numbers of viable cells normalized relative to TC: 96 hours
AsPC-1 cells [4] = experiment: Cell growth with gemcitabine treatment after sDNA transfection, AsPC-1; format: cell-based, Human; settings: for Fold change in numbers of viable cells normalized relative to TC: AsPC-1, 0.1 ug sDNA, 96 hours
Method: as §1, §2

AsPC-1 cells [5] = experiment: as above; format: cell-based, Human; settings: for cells died: AsPC-1, 0.25 μg AT-sDNA
[6] = system: HMGA1 expression levels in AsPC-1 cells; experiment: Western blot of HMGA1 expression levels in AsPC-1 nuclear extracts; format: cell-based, Human; settings: AsPC-1, 0.5 μg sDNA in six well plates, 48 hours
Method: Cytoplasmic and nuclear protein extracts were prepared from pancreatic cancer cells using NE-PER extraction kit (Thermo Scientific, Rockford, Ill.). Protein concentrations were determined using a bicinchoninic acid assay with bovine serum albumin as a standard. Nuclear proteins that contained 25 or 15 μg total protein were separated by SDS-PAGE with a 4%-20% Criterion gradient gel (Bio-Rad Laboratories, Inc., Hercules, Calif.). The proteins were transferred to immuno-blot PVDF membrane (0.2 μm) (Bio-Rad Laboratories, Inc., Hercules, Calif.) and blocked in 5% dry milk in PBS supplemented with 0.2% Tween 20 (PBST). The PVDF membranes were then probed with 1:1000 dilution of rabbit anti-HMGA1 antibody (Santa Cruz Biotechnology Inc, Santa Cruz, Calif.) and 1:100 dilution of rabbit anti-HMGA2 antibody (Abcam plc, Cambridge, Mass.), in 3% BSA in PBST at 4° C. overnight. After three washes with PBST, the membrane was blotted with secondary antibody, ant-rabbit IgG-HRP (cell signaling) 1:5000 dilution in 1% dry milk in PBST at room temperature for 1 hour. An enhanced chemiluminescence detection (ECL, GE Healthcare Life Sciences, Piscataway, N.J.) system was used to detect target proteins. To ensure equal loading of the proteins between groups, membranes were re-probed with anti-TATA binding protein antibody (Abcam plc, Cambridge, Mass.). […] The control was nuclear extract from untreated cells. Triplicates of each sample were run on the gel and analyzed with the Alpha Imager. The relative HMGA1 densities were obtained by dividing HMGA 1 density by TBP density. […] TATA binding protein (TBP) was used as a loading control. […] HMGA1 expression levels were examined after transfection with CG-sDNA or AT-sDNA to determine if the transfection procedure affected HMGA1 expression levels. The AT-sDNA used for transfection contained an 18 adenine/thymine stretch enabling HMGA1 to bind the DNA with all three AT-hooks. As a negative control, a non-HMGA1-targeted sDNA containing an equal length of DNA but with no AT-stretches, i.e. CG-sDNA, was used. […]

Miapaca-2 cells [7] = experiment: Cell viability (crystal violet) after sDNA transfection, Miapaca-2; format: cell-based, Human; settings: for cells dead compared to TC: versus transfection control (TC) cells; for cells dead compared to UT: Miapaca-2, 0.1 ug sDNA, versus untransfected (UT) cells; for Fold change in numbers of viable cells between TC and sDNA transfected cells (in parentheses) / Fold change in numbers of viable cells between UT and transfected cells: 96 h after transfection
Method: The absorbance was measured at 570 nm in quadruplicate. All data from control cells were combined and averaged.

For “AT-sDNA: AT-rich phosphorothioate DNA, 5′-G*G*G*A*A*A*A*A*A*T*T*T*T*T*T*A*A*A*A*A*A*C*C*C-3′ (SEQ ID NO: 1), sulfur substitution at every position (DNA dG*dG*dG*dA*dA*dA*dA*dA*dA*dT*dT*dT*dT*dT*dT*dA*dA*dA*dA*dA*dA*dC*dC*dC)”, the “cells dead / change in cell viability” value (Miapaca-2 cells [1]; Miapaca-2, 0.1 μg sDNA, 1 nM gemcitabine) was 33.6%, the cells surviving (Miapaca-2 cells [1]; Miapaca-2, 0.1 μg sDNA, 10 nM gemcitabine, normalized to 0 nM gemcitabine) was 51.2% and the “Fold change in numbers of viable cells normalized relative to TC” value (Miapaca-2 cells [1]; Gemcitabine 0 nM) was −1.52 fold. For the same substance, the “Fold change in numbers of viable cells normalized relative to TC” value (Miapaca-2 cells [1]; Gemcitabine 10 nM) was −1.79 fold, the “Fold change in numbers of viable cells normalized relative to TC” value (Miapaca-2 cells [1]; Gemcitabine 30 nM) was −7.07 fold and the “Fold change in numbers of viable cells normalized relative to TC” value (Miapaca-2 cells [1]; Gemcitabine 100 nM) was −9.58 fold. For the same substance, the “Fold change in numbers of viable cells normalized relative to TC” value (Miapaca-2 cells [1]; Gemcitabine 1000 nM) was −6.82 fold, the cell death (AsPC-1 cells [2]; AsPC-1, 0.1 μg sDNA per well) was 33% and the “cells dead compared to TC” value (AsPC-1 cells [2]; AsPC-1, 0.1 μg sDNA, 48 hrs, versus transfection control (TC) cells) was 22.3%. The “cells dead compared to UT” value (AsPC-1 cells [2]; 48 hrs) was 42.0%, the “Fold change in numbers of viable cells between TC and sDNA transfected cells (in parentheses)” value (“Fold change in numbers … (in parentheses)” below) (AsPC-1 cells [2]; AsPC-1, 0.1 μg sDNA) was −1.44 fold and the “Fold change in numbers of viable cells between UT and transfected cells” value (AsPC-1 cells [2]; AsPC-1, 0.1 μg sDNA) was −1.57 fold. The “cells dead compared to TC” value (AsPC-1 cells [2]; AsPC-1, 0.1 μg sDNA, 96 hrs, versus transfection control (TC) cells) was 30.7%, the “cells dead compared to UT” value (AsPC-1 cells [2]; 96 hrs) was 36.1% and the cell death (AsPC-1 cells [2]; AsPC-1, 0.25 μg sDNA per well) was 44%. The “Fold change in numbers … (in parentheses)” value (AsPC-1 cells [2]; AsPC-1, 0.25 μg sDNA) was −1.65 fold, the “Fold change in numbers of viable cells between UT and transfected cells” value (AsPC-1 cells [2]; AsPC-1, 0.25 μg sDNA) was −1.79 fold and the “cell death compared to TC” value (AsPC-1 cells [2]; AsPC-1, 0.25 μg sDNA, 96 hours, versus TC cells) was 39.4%. The cell death (AsPC-1 cells [2]; AsPC-1, 1.0 μg sDNA per well) was 57%, the “cells dead compared to TC” value (AsPC-1 cells [2]; AsPC-1, 1.0 μg sDNA, 96 hours, versus TC cells) was 53.6% and the “Fold change in numbers of viable cells normalized relative to TC” value (Miapaca-2 cells [3]; Miapaca-2, 0.1 ug sDNA, Gemcitabine 1 nM) was −1.38 fold. For the same substance, the “Fold change in numbers of viable cells normalized relative to TC” value (Miapaca-2 cells [3]; Miapaca-2, 0.25 ug sDNA, Gemcitabine 0 nM) was −3.68 fold, the “Fold change in numbers of viable cells normalized relative to TC” value (Miapaca-2 cells [3]; Miapaca-2, 0.25 ug sDNA, Gemcitabine 1 nM) was −4.45 fold and the “Fold change in numbers of viable cells normalized relative to TC” value (Miapaca-2 cells [3]; Miapaca-2, 0.25 ug sDNA, Gemcitabine 10 nM) was −4.14 fold. The “Fold change in numbers of viable cells normalized relative to TC” value (Miapaca-2 cells [3]; Miapaca-2, 0.25 ug sDNA, Gemcitabine 30 nM) was −8.32 fold, the “Fold change in numbers of viable cells normalized relative to TC” value (Miapaca-2 cells [3]; Miapaca-2, 0.25 ug sDNA, Gemcitabine 100 nM) was −11.81 fold and the “Fold change in numbers of viable cells normalized relative to TC” value (Miapaca-2 cells [3]; Miapaca-2, 0.25 ug sDNA, Gemcitabine 1000 nM) was −11.31 fold. For the same substance, the “overall drop in the number of viable cells” value (Miapaca-2 cells [3]; Miapaca-2, either 0.1 or 0.25 μg AT-sDNA, 100 nm or greater gemcitabine) was ~10 fold, the cells dying (AsPC-1 cells [4]; AsPC-1, 0.1 μg AT-sDNA, 100 nM gemcitabine) was 29.4% and the “Fold change in numbers of viable cells normalized relative to TC” value (AsPC-1 cells [4]; Gemcitabine 0 nM) was −1.44 fold. For the same substance, the “Fold change in numbers of viable cells normalized relative to TC” value (AsPC-1 cells [4]; Gemcitabine 1 nM) was −1.58 fold, the “Fold change in numbers of viable cells normalized relative to TC” value (AsPC-1 cells [4]; Gemcitabine 10 nM) was −1.71 fold and the “Fold change in numbers of viable cells normalized relative to TC” value (AsPC-1 cells [4]; Gemcitabine 30 nM) was −1.86 fold. For the same substance, the “Fold change in numbers of viable cells normalized relative to TC” value (AsPC-1 cells [4]; Gemcitabine 100 nM) was −2.04 fold, the “Fold change in numbers of viable cells normalized relative to TC” value (AsPC-1 cells [4]; Gemcitabine 1000 nM) was −2.33 fold and the cell death (AsPC-1 cells [5]; AsPC-1, 0.025 μg AT-sDNA, 1000 nM gemcitabine) was 31%. It also gave a cells dying (AsPC-1 cells [5]; AsPC-1, 0.1 μg AT-sDNA, 1 nM gemcitabine) of 9.0%, a cells died (AsPC-1 cells [5]; 1 nM gemcitabine) of 14.9% and a cells died (AsPC-1 cells [5]; 100 nM gemcitabine) of 41.7%. The “overall drop in the number of viable cells after gemcitabine treatment” value (AsPC-1 cells [5]; AsPC-1, AT-sDNA transfection) was 2-4 fold, the “change in HMGA1 expression levels after sDNA transfection” value [6] was “no changes” and the “cells dead compared to TC” value (Miapaca-2 cells [7]; Miapaca-2, 0.1 μg sDNA, 48 hrs) was 17.2%. The “cells dead compared to UT” value (Miapaca-2 cells [7]; 48 hrs) was 48.4%, the “Fold change in numbers … (in parentheses)” value (Miapaca-2 cells [7]; Miapaca-2, 0.1 μg sDNA) was −1.52 fold and the “Fold change in numbers of viable cells between UT and transfected cells” value (Miapaca-2 cells [7]; Miapaca-2, 0.1 μg sDNA) was −2.36 fold. For the same substance, the “cells dead compared to TC” value (Miapaca-2 cells [7]; Miapaca-2, 0.1 μg sDNA, 96 hrs) was 34.1%, the “cells dead compared to UT” value (Miapaca-2 cells [7]; 96 hrs) was 58.9% and the “Fold change in numbers … (in parentheses)” value (Miapaca-2 cells [7]; Miapaca-2, 0.25 μg sDNA) was −3.68 fold. For the same substance, the “Fold change in numbers of viable cells between UT and transfected cells” value (Miapaca-2 cells [7]; Miapaca-2, 0.25 μg sDNA) was −6.07 fold.
